The values that follow come from publication PMC9127364, “2-Aminoacrylate stress damages diverse PLP-dependent enzymes in vivo” (The Journal of Biological Chemistry, 2022).

Assay [1] has as its target T1, IlvE (Salmonella enterica, UniProt P0A1A5).
T1 construct: pET28b plasmid, purified on HisTrap (His-tagged); expressed in S. enterica DM13509 (wild type) and DM17050 (ridA)
T1 sequence (P0A1A5 2-309): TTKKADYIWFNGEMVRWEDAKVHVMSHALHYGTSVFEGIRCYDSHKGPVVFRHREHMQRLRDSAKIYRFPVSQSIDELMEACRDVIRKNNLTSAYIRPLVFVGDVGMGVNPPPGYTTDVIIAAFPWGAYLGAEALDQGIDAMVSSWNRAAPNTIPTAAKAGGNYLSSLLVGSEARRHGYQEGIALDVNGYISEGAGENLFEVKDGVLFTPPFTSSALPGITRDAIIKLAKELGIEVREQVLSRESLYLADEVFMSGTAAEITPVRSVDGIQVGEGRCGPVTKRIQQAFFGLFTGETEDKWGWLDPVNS
The experiment in a line: pyruvate-PLP adduct released by base from the purified protein, HPLC. The format is cell-based. The following applies: covalent; 2AA formed in vivo, ridA host, 5 mM L-serine; attacks active-site PLP.

Assay [2] deals with T2, Alr (Salmonella enterica, UniProt P0A1A3).
T2 construct: pET20b derivative pDM1602, N-terminal His6 tag; expressed in and purified from S. enterica DM13509 (wild type) and DM17050 (ridA)
T2 sequence (P0A1A3 whole entry): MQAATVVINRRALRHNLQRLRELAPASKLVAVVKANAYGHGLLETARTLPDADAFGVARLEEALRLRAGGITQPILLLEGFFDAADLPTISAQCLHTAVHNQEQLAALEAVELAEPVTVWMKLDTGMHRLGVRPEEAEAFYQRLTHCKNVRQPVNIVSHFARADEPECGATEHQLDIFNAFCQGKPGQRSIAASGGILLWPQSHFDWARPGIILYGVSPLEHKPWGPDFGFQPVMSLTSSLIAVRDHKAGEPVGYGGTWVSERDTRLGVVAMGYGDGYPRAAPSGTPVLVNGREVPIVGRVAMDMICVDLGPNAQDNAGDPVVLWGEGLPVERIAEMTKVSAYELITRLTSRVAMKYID
The assay is described as above. The format is cell-based. The conditions noted are these: covalent; 2AA formed in vivo, ridA host, 5 mM L-serine; attacks active-site PLP.
Excerpt: pyruvate-PLP adduct released by base from the purified protein, HPLC on Alr

Assay [3] concerns the target T3, IlvA (Salmonella enterica, UniProt P20506).
T3 construct: pET20b derivative pDM1578, N-terminal His6 tag; expressed in S. enterica DM13509 (wild type) and DM17050 (ridA)
T3 sequence (P20506 1-514): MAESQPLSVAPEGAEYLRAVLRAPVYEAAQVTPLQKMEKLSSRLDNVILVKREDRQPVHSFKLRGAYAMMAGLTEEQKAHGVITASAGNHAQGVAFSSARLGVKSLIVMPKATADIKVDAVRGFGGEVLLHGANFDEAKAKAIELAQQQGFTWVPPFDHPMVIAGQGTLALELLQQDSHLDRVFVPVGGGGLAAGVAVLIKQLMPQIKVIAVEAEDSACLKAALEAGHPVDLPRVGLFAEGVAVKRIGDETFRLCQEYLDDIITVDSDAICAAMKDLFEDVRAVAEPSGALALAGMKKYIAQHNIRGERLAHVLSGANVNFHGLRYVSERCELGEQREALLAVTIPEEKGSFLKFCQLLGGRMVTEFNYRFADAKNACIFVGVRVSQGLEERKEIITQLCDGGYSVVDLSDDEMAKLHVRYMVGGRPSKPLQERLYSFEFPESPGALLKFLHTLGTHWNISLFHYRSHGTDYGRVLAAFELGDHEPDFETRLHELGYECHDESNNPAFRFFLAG
The description is as above. It is filed as cell-based. The following applies: covalent; 2AA formed in vivo, ridA host, 5 mM L-serine; attacks active-site PLP.
Excerpt: pyruvate-PLP adduct released by base from the purified protein, HPLC on IlvA

Assay [4] addresses T2, Alr. As to the kind of experiment: incubation with purified protein, base release of cofactors, HPLC. The conditions noted are these: covalent; suicide inhibitor, forms pyruvate-PLP in the active site; protein from ridA+ host. The format is binding.
Assay [5] concerns the target T1, IlvE. As to the kind of experiment: base release of bound cofactor, HPLC at […] nm. It is filed as binding. The conditions noted are these: protein from wild-type (ridA+) host; 30 mM KOH release; storage buffer with 10 μM PLP.
For assay [6], the target named is T2, Alr. As to the kind of experiment: base release of bound cofactor, HPLC at […] nm. The following applies: protein from wild-type (ridA+) host; 30 mM KOH release; storage buffer with 10 μM PLP. It is filed as binding.
The target of assay [7] is T3, IlvA. As to the kind of experiment: base release of bound cofactor, HPLC at […] nm. It is filed as binding. The conditions noted are these: protein from wild-type (ridA+) host; 30 mM KOH release; storage buffer with 10 μM PLP.
The target in assay [8] is T1, IlvE. As to the kind of experiment: base release of bound cofactor, HPLC at […] nm. The following applies: protein from wild-type (ridA+) host; 30 mM KOH release; storage buffer with 10 μM PLP. The format is binding. This is another data set of the same source.

Turning to `C=C(N)C(=O)O` [2AA], the Pyruvate-PLP on IlvE [1] was 0.72 ± <0.01; at Alr [2] it was 0.11 ± <0.01; on IlvA [3] it was 0.03 ± <0.01.

With `NC(CCl)C(=O)O` (centres unmarked) [3CA], the “incubation with purified protein, base release of cofactors, HPLC” value on Alr [4] is reported as “Alr but not IlvA is sensitive to 3-chloroalanine (3CA)”.

For `Cc1ncc(COP(=O)(O)O)c(C=O)c1O` [PLP], the figures for the PLP on IlvE [5], on Alr [6] and on IlvA [7] were 0.30 ± <0.01, 0.87 ± <0.01 and 1.25 ± 0.04 nmol/nmol protein, respectively.

Take `Cc1ncc(COP(=O)(O)O)c(CN)c1O` [PMP]: the PMP at IlvE [8] is listed as 0.33 ± <0.01.
